These results are taken from patent US20020054941A1, “Methods and compositions to enhance tenderness and value of meat” (The Board of Regents of the University of Nebraska, priority 2000, published 2002).

Marks after values point to notes of the source that are not given here.

Test [1] has as its system spoilage micro-organisms. Put plainly: Microbial stability (logarithmic microbiological growth). The following applies: for Logarithmic Microbiological Growth Values, difference: difference day 5 - day 0. As for the experimental part:
(§1) Thoracic limbs from 14 steers were chilled on the carcass (controls) or removed within 2 hours post-mortem and pumped to 10% of muscle weight with water, 200 mM or 400 mM sodium citrate solutions. The injections were performed at various sites along the muscle. The control remained on the carcass. Muscle pH and temperature were measured immediately prior to pumping. Experimental and control muscles were chilled at 2° C. for 24 hours. Steaks (2.54 cm thick) were removed after 24 hours from the Infraspinatus, Supraspinatus and Triceps brachii muscles and were either frozen immediately or aged for another 6 days and then evaluated. A consumer panel evaluated palatability juiciness, tenderness, connective tissue amount, and flavor desirability) on Infraspinatus and Triceps brachii steaks using 9-point hedonic scales (1 being very undesirable and 9 being very desirable) for each trait. Warner-Bratzler shear force values were determined on 1.27 cm-diameter cores from steaks that were broiled to an internal temperature of 70° C.
There were no differences in initial microbial load among the treatments.

In test [2] the test system is Infraspinatus (ISP). Put plainly: Warner-Bratzler shear force of muscle pumped pre-rigor with sodium citrate. More on the design: species or system steers; unit not given here. As for the experimental part:
as §1

The subject of test [3] is Supraspinatus (SSP). The description is as above. More on the design: species or system steers; unit not given here. How it is done: as §1
The test system of test [4] is Triceps brachii (TBR). The description is as above. More on the design: species or system steers; unit not given here. As for the experimental part: as §1

In the case of `O=C([O-])CC(O)(CC(=O)[O-])C(=O)[O-].[Na+].[Na+].[Na+]` [Sodium citrate, sodium citrate], the “Logarithmic Microbiological Growth Values” in test [1] (200 mM, day 0) is 2.58; in test [1] (200 mM, day 5) it was 5.45^b; in test [1] (400 mM, day 0) it was 2.72; in test [1] (400 mM, day 5), 5.11^b. Further, the “Logarithmic Microbiological Growth Values, difference” value in test [1] (200 mM) was 2.88^b; in test [1] (400 mM) it was “no greater microbial growth than the control”; in test [1] (400 mM, listed as NaCit) it was 2.40^a,b. Besides, the WBSF is 3.57^b in test [2] (200 mM, d1); 3.12^b in test [2] (200 mM, d7); 3.32^a in test [2] (400 mM, d1); 2.79^a in test [2] (400 mM, d7); 4.09^a in test [3] (200 mM, d1); 3.83^a in test [3] (200 mM, d7). Moreover, the WBSF in test [3] (400 mM, d1) is given as 3.91^a; in test [3] (400 mM, d7), 4.03^a; in test [4] (200 mM, d1), 3.85^a; in test [4] (200 mM, d7), 3.57^b; in test [4] (400 mM, d1), 3.55^a; in test [4] (400 mM, d7) it was 3.09^a.
